Three compounds from patent US9376376B2, “Substitute diphenylamine compounds use thereof as antitumor agents” (SINOCHEM CORPORATION, priority 2012, dated 2016) can be followed below.

One assay has as its system leukemia HL-60 cells. Description: In vitro cell inhibition assay, CCK-8 method, HL-60. Type of assay: cell-based, human. Here is the method: (§1) After the cell culture flasks gently shaking, culture fluid was discarded in clean bench. […] Cells were collected and transferred to centrifuge tube. For the non-adherent cells HL-60, CCRF-CEM and MOLT-4, cell flasks were picked up from incubator and then transferred to the centrifuge tubes directly. After cells were collected using centrifuge at 1000 rpm/min for 5 min, the fluid was discarded. Then cells were washed for one time by PBS, discard fluid. Then add some medium, count cells under inverted microscope using blood cell counting plate, according the counting number to making the density of adherent cell was 1×10^5 cells/mL, the non-adherent cell was 2×10^5 cells/mL (the volumes of HL-60, CCRF-CEM, MOLT-4 are smaller than non-adherent cells, these cells added to each well was much more higher). Add 50 μL aliquots to each well of 96-well plates (the density of adherent cells was 5000 cells/well, non-adherent cells was 10000 cells/well). Blank control, Negative control, blank control with compounds and positive control wells were grouped, and three replicate wells were used for each data point in the experiments. Then the cells were cultured in 5% incubator for overnight at 37° C., Then the different concentration compounds were added to each well. After incubation for 48 h, according to the manufacturer's instructions, CCK-8 reagent (10 μl) was added and incubation was continued for a further 2-4 h. The absorbance (A) of each well was read at 450 nm using a plate reader.
In general terms: Tetrazolium dyes change colour on reduction, which living cells bring about.

The subject of assay [1] is non-small cell lung cancer A549 cells. Description: In vitro cell inhibition assay, CCK-8 method, A549. Type of assay: cell-based, human. The protocol: as §1
The subject of assay [2] is nasopharyngeal carcinoma CNE. In words: In vitro cell inhibition assay, CCK-8 method, CNE. Type of assay: cell-based, human. Particulars: Homo sapiens, read-out: The half maximal inhibitory concentration (IC50). Here is the method: as §1, with “After incubation for 48 h, according to the manufacturer's instructions, CCK-8 reagent (10 μl) was added and incubation was continued for a further 2-4 h.” left out

A further assay concerns colon cancer COLO-205. Description: In vitro cell inhibition assay, CCK-8 method, COLO-205. Particulars: Homo sapiens, COLO 205, read-out: The half maximal inhibitory concentration (IC50).
The test system of the next assay is glioma U251. Description: In vitro cell inhibition assay, CCK-8 method, U251. The format is cell-based, human. Conditions: Homo sapiens, U-251; glioma U251, CCK-8 method; read-out: The half maximal inhibitory concentration (IC50). Here is the method:
as §1, with “After incubation for 48 h, according to the manufacturer's instructions, CCK-8 reagent (10 μl) was added and incubation was continued for a further 2-4 h.” left out

The test system of assay [3] is intracranial malignant melanoma A375. In words: In vitro cell inhibition assay, CCK-8 method, A375. The format is cell-based, human. Conditions: Homo sapiens, A-375; melanoma A375, CCK-8 method; read-out: The half maximal inhibitory concentration (IC50). The protocol:
as §1, with “After incubation for 48 h, according to the manufacturer's instructions, CCK-8 reagent (10 μl) was added and incubation was continued for a further 2-4 h.” left out

The next assay relates to hepatocarcinoma SK-HEP-1. Description: In vitro cell inhibition assay, CCK-8 method, SK-HEP-1. The format is cell-based, human. Particulars: Homo sapiens, SK-HEP1; hepatocarcinoma SK-HEP-1, CCK-8 method; read-out: The half maximal inhibitory concentration (IC50). The protocol: as §1, with “After incubation for 48 h, according to the manufacturer's instructions, CCK-8 reagent (10 μl) was added and incubation was continued for a further 2-4 h.” left out

Another assay concerns pancreatic cancer BXPC-3. Description: In vitro cell inhibition assay, CCK-8 method, BXPC-3. Type of assay: cell-based, human. Particulars: Homo sapiens; pancreatic cancer BXPC-3, CCK-8 method; read-out: The half maximal inhibitory concentration (IC50). The protocol: as §1, with “After incubation for 48 h, according to the manufacturer's instructions, CCK-8 reagent (10 μl) was added and incubation was continued for a further 2-4 h.” left out

Assay [4] deals with non-small cell lung cancer NCI-H1650. Description: In vitro cell inhibition assay, CCK-8 method, NCI-H1650. Conditions: Homo sapiens; Non-small-cell carcinoma NCI-H1650, CCK-8 method; read-out: The half maximal inhibitory concentration (IC50). The format is cell-based, human. The protocol: as §1, with “After incubation for 48 h, according to the manufacturer's instructions, CCK-8 reagent (10 μl) was added and incubation was continued for a further 2-4 h.” left out

The subject of another assay is leukemia MOLT-4. Description: In vitro cell inhibition assay, CCK-8 method, MOLT-4. The format is cell-based, human. Conditions: Homo sapiens; leukemia MOLT-4, CCK-8 method; read-out: The half maximal inhibitory concentration (IC50). The protocol:
as §1, with “After incubation for 48 h, according to the manufacturer's instructions, CCK-8 reagent (10 μl) was added and incubation was continued for a further 2-4 h.” left out

Another assay relates to prostate cancer PC-3. In words: In vitro cell inhibition assay, CCK-8 method, PC-3. Type of assay: cell-based, human. Conditions: Homo sapiens; Prostate cancer PC-3, CCK-8 method; read-out: The half maximal inhibitory concentration (IC50). The protocol: as §1, with “After incubation for 48 h, according to the manufacturer's instructions, CCK-8 reagent (10 μl) was added and incubation was continued for a further 2-4 h.” left out

In the next assay the test system is bladder cancer T24. In words: In vitro cell inhibition assay, CCK-8 method, T24. Conditions: Homo sapiens; bladder cancer T24, CCK-8 method; read-out: The half maximal inhibitory concentration (IC50). Type of assay: cell-based, human. Here is the method: as §1, with “After incubation for 48 h, according to the manufacturer's instructions, CCK-8 reagent (10 μl) was added and incubation was continued for a further 2-4 h.” left out

The test system of a further assay is breast cancer MDA-MB-231. Description: In vitro cell inhibition assay, CCK-8 method, MDA-MB-231. Type of assay: cell-based, human. Particulars: Homo sapiens; breast cancer MDA-MB-231, CCK-8 method; read-out: The half maximal inhibitory concentration (IC50). Here is the method: as §1, with “After incubation for 48 h, according to the manufacturer's instructions, CCK-8 reagent (10 μl) was added and incubation was continued for a further 2-4 h.” left out

The test system of a further assay is leukemia CCRF-CEM. In words: In vitro cell inhibition assay, CCK-8 method, CCRF-CEM. Type of assay: cell-based, human. Particulars: Homo sapiens, read-out: The half maximal inhibitory concentration (IC50). Here is the method:
as §1, with “After incubation for 48 h, according to the manufacturer's instructions, CCK-8 reagent (10 μl) was added and incubation was continued for a further 2-4 h.” left out

The subject of another assay is colon cancer HT-29. In words: In vitro cell inhibition assay, CCK-8 method, HT-29. The format is cell-based, human. Particulars: Homo sapiens; Colorectal Cancer HT-29, CCK-8 method; read-out: The half maximal inhibitory concentration (IC50). Here is the method:
as §1, with “After incubation for 48 h, according to the manufacturer's instructions, CCK-8 reagent (10 μl) was added and incubation was continued for a further 2-4 h.” left out

Assay [5] deals with non-small cell lung cancer NCI-H358. Description: In vitro cell inhibition assay, CCK-8 method, NCI-H358. Type of assay: cell-based, human. Particulars: Homo sapiens; Non-small-cell carcinoma NCI-H358, CCK-8 method; read-out: The half maximal inhibitory concentration (IC50). Here is the method:
as §1, with “After incubation for 48 h, according to the manufacturer's instructions, CCK-8 reagent (10 μl) was added and incubation was continued for a further 2-4 h.” left out

The test system of the next assay is osteosarcoma MG-63. In words: In vitro cell inhibition assay, CCK-8 method, MG-63. Type of assay: cell-based, human. Conditions: Homo sapiens; osteosarcoma MG-63, CCK-8 method; read-out: The half maximal inhibitory concentration (IC50). Here is the method:
as §1, with “After incubation for 48 h, according to the manufacturer's instructions, CCK-8 reagent (10 μl) was added and incubation was continued for a further 2-4 h.” left out

A further assay relates to prostate cancer DU-145. In words: In vitro cell inhibition assay, CCK-8 method, DU-145. Type of assay: cell-based, human. Particulars: Homo sapiens; Prostate cancer DU-145, CCK-8 method; read-out: The half maximal inhibitory concentration (IC50). The protocol:
as §1, with “After incubation for 48 h, according to the manufacturer's instructions, CCK-8 reagent (10 μl) was added and incubation was continued for a further 2-4 h.” left out

Another assay concerns cervical cancer Hela. Description: In vitro cell inhibition assay, CCK-8 method, Hela. Type of assay: cell-based, human. Conditions: Homo sapiens, read-out: The half maximal inhibitory concentration (IC50). Here is the method: as §1, with “After incubation for 48 h, according to the manufacturer's instructions, CCK-8 reagent (10 μl) was added and incubation was continued for a further 2-4 h.” left out

`N#Cc1c(Cl)c(Cl)c(Nc2c(Br)cc(Br)cc2Br)c(C#N)c1Cl` [Compound 6-112]: the inhibition at 0.01 µM in the assay with leukemia HL-60 cells (Homo sapiens, HL-60 cells, CCK-8 method, concentration 0.01 μM, read-out: Proliferation inhibitory effect of the compounds on HL-60 cells (% of Control)) was determined as 48.3%; in assay [1] (Homo sapiens, A549, CCK-8, 0.01 μM, 48 h incubation, read-out: Proliferation inhibitory effect of the compounds on A549 cells (% of Control)), 46.5%. Besides, the inhibition at 0.1 µM in the assay with leukemia HL-60 cells (Homo sapiens, HL-60 cells, CCK-8 method, concentration 0.1 μM, read-out: Proliferation inhibitory effect of the compounds on HL-60 cells (% of Control)) turned out to be 59.5%; in assay [1] (Homo sapiens, A549, CCK-8, 0.1 μM, 48 h incubation, read-out: Proliferation inhibitory effect of the compounds on A549 cells (% of Control)), 47.2%. In addition, the inhibition at 1 µM in the assay with leukemia HL-60 cells (Homo sapiens, HL-60 cells, CCK-8 method, concentration 1 μM, read-out: Proliferation inhibitory effect of the compounds on HL-60 cells (% of Control)) was found to be 91.5%; in [1] (Homo sapiens, A549, CCK-8, 1 μM, 48 h incubation, read-out: Proliferation inhibitory effect of the compounds on A549 cells (% of Control)), 76.9%. Besides, the inhibition at 10 µM in the assay with leukemia HL-60 cells (Homo sapiens, HL-60 cells, CCK-8 method, concentration 10 μM, read-out: Proliferation inhibitory effect of the compounds on HL-60 cells (% of Control)) was determined as 97.6%; in assay [1] (Homo sapiens, A549, CCK-8, 10 μM, 48 h incubation, read-out: Proliferation inhibitory effect of the compounds on A549 cells (% of Control)) it was 89.3%. Further, the inhibition at 100 µM amounted to 96.5% with leukemia HL-60 cells (Homo sapiens, HL-60 cells, CCK-8 method, concentration 100 μM, read-out: Proliferation inhibitory effect of the compounds on HL-60 cells (% of Control)) and 99.3% in assay [1] (Homo sapiens, A549, CCK-8, 100 μM, 48 h incubation, read-out: Proliferation inhibitory effect of the compounds on A549 cells (% of Control)).
For the compound `CC(=O)O[C@H]1C(=O)[C@@]2(C)[C@H]([C@H](OC(=O)c3ccccc3)[C@]3(O)C[C@H](OC(=O)[C@H](O)[C@@H](NC(=O)c4ccccc4)c4ccccc4)C(C)=C1C3(C)C)[C@]1(OC(C)=O)CO[C@@H]1C[C@@H]2O` [Taxol], the IC50 in assay [2] is above 100 µM; with colon cancer COLO-205, below 0.01 µM; with glioma U251, above 100 µM; in assay [3] it was 55.3 µM; in the assay on leukemia HL-60 cells (Homo sapiens, leukemia HL-60, CCK-8 method, read-out: The half maximal inhibitory concentration (IC50)) it was below 0.01 µM; with hepatocarcinoma SK-HEP-1, 0.047 µM. Also, the IC50 is below 0.01 µM in the assay on pancreatic cancer BXPC-3; 0.42 µM in [4]; below 0.01 µM with leukemia MOLT-4; 69 µM in the assay on prostate cancer PC-3; 3.54 µM in the assay on bladder cancer T24; 2.02 µM with breast cancer MDA-MB-231. Further, the IC50 is below 0.01 µM with leukemia CCRF-CEM; above 100 µM with colon cancer HT-29; 0.278 µM in assay [5]; 83.5 µM in [1] (Homo sapiens, Non-small-cell carcinoma A549, CCK-8 method, read-out: The half maximal inhibitory concentration (IC50)); below 0.01 µM in the assay with osteosarcoma MG-63; 17.4 µM in the assay on prostate cancer DU-145. Moreover, in the assay with cervical cancer Hela, the IC50 was below 0.01 µM.
In the case of `N#Cc1c(Cl)c(Cl)c(Nc2c(Cl)cc(C(F)(F)F)cc2Cl)c(C#N)c1Cl` [Compound 6-95], the “Proliferation inhibitory effect of the compounds on HL-60 cells (% of Control)” value in the assay with leukemia HL-60 cells (HL-60 cells, CCK-8 method, concentration 0.01 μM) is 0.00 % of Control; in the assay on leukemia HL-60 cells (HL-60 cells, CCK-8 method, concentration 0.1 μM), 43.28 % of Control; in the assay with leukemia HL-60 cells (HL-60 cells, CCK-8 method, concentration 1 μM) it was 94.76 % of Control; in the assay on leukemia HL-60 cells (HL-60 cells, CCK-8 method, concentration 10 μM), 94.99 % of Control; in the assay on leukemia HL-60 cells (HL-60 cells, CCK-8 method, concentration 100 μM), 96.40 % of Control. In addition, the “Proliferation inhibitory effect of the compounds on A549 cells (% of Control)” value in assay [1] (CCK-8, 0.01 μM, 48 h incubation) is reported as 39.65 % of Control; in assay [1] (CCK-8, 0.1 μM, 48 h incubation), 56.27 % of Control; in [1] (CCK-8, 1 μM, 48 h incubation), 78.63 % of Control; in assay [1] (CCK-8, 10 μM, 48 h incubation), 97.88 % of Control; in assay [1] (CCK-8, 100 μM, 48 h incubation), 98.69 % of Control.
